# From EP0548441A1, “Endothelin antagonists” (Japat Ltd, priority 1991, dated 1993)
# Where a SMILES comes first, the peptide text is derived from it.
# Legend:
# guinea pig trachea = assay: Inhibition of the contraction of guinea pig trachea; format: cell-based; details: guinea pig tracheal rings
# Procedure: The contraction of the guinea pig trachea was measured according to Br. J. Pharmacol. 98, 483, l989, by the following procedure.
# Male guinea pigs weighing 350 - 500 g were stunned and bled. The trachea was rapidly removed and placed in an oxygenated (95% O₂ , 5% CO₂) Krebs solution. After removal of the adherent fat and connective tissues, the trachea was cut into 2 mm wide rings. The two rings were tied together, end to end, placed in a 30 ml organ bath and connected to an isometric force-transducer under an initial tension of 1.0 g.
# ETA receptor = target: T1, ETA receptor (Sus scrofa, UniProt Q29010)
# T1 sequence (Q29010 21-427): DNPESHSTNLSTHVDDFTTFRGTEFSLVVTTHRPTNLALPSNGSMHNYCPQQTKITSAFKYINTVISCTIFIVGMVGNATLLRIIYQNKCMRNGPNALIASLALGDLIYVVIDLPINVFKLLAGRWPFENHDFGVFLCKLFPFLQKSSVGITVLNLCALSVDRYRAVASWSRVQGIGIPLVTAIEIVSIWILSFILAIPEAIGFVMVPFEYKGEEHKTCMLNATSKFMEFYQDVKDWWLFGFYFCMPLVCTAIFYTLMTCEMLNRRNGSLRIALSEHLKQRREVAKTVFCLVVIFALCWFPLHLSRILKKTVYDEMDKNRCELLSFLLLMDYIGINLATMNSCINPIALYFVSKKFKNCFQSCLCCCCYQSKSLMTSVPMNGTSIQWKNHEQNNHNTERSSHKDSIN
# Procedure: Porcine lung was homogenized with a Kinematica Polytron homogenizer (Lucern, Switzerland) three times at top speed for each 30 sec in 9 volumes of ice-cold 0.25 M sucrose solution containing 20 mM Tris-HCl (pH 7.4), 0.2 mM phenylmethylsulfonyl fluoride, 1 µM leupeptin, 1 µM pepstatin, 0.1 mM EDTA, and 0.5 mM EGTA. After centrifugation of the homogenate at 1,000 x g for 10 min at 4°C, the supernatant was centrifuged again at 20,000 x g for 20 min. The resulting pellet was washed three times as described above and used as a membrane source. The membrane was stocked in aliquots at -80°C until use.
# ET-3 in the absence and presence of various amounts of nonlabeled ligands in a total volume of 1 ml of 20 mM HEPES (pH 7), 145 mM NaCl, 5 mM KCl, 3 mM MgCl₂ , 1 mM EGTA, 1 mg/ml bovine serum albumin, and 0.2 mg/ml bacitracin. […] The radioactivity in membrane pellet was measured in a gamma counter. Nonspecific binding was defined as membrane-associated radioactivity in the presence of saturating concentrations of ET(l00 nM). […] Total binding was always less than l5% of the total radioactivity added.
# The specific binding site for ETs in the plasma membrane of porcine lung was detected. The binding to the ETA receptor was determined with [¹²⁵I]ET-1 in the presence of 1 nM unlabeled ET-3 and the binding to the ETB receptor was determined with [¹²⁵I]ET-3 alone. […]
Structure (SMILES),"inhibition of ET-3-induced contraction of the trachea (guinea pig trachea; 100 nM, added 5 min prior to the addition of ET-3)",Ki (ETA receptor) [nM],"contraction of the trachea (guinea pig trachea; organ bath, high KCl (60 mM) as reference standard)"
CC[C@H](C)[C@H](NC(=O)[C@H](CC(=O)O)NC(=O)[C@H](CC(C)C)NC(=O)[C@H](Cc1c[nH]cn1)NC(=O)[C@H](C)NC(=O)[C@H](Cc1ccccc1)NC(=O)[C@H](Cc1ccc(O)cc1)NC(=O)[C@@H](NC(=O)[C@H](C)NC(=O)[C@H](CCC(=O)O)NC(=O)[C@H](CCCCN)NC(=O)[C@H](CC(=O)O)NC(C)=O)C(C)C)C(=O)N[C@H](C(=O)N[C@@H](Cc1c[nH]c2ccccc12)C(=O)O)[C@@H](C)CC [Compound (II)] (Ac-DKEAVYFAHLDIIW-OH),significantly inhibited,450,–
"CC[C@H](C)[C@H](NC(=O)[C@H](CC(=O)O)NC(=O)[C@H](CC(C)C)NC(=O)[C@H](Cc1c[nH]cn1)NC(=O)[C@@H]1CSSC[C@H](N)C(=O)N[C@@H]([C@@H](C)O)C(=O)N[C@H]2CSSC[C@H](NC(=O)[C@H](CCC(=O)O)NC(=O)[C@H](CCCCN)NC(=O)[C@H](CC(=O)O)NC(=O)[C@H](CCCCN)NC(=O)[C@H](Cc3ccc(O)cc3)NC(=O)[C@H]([C@@H](C)O)NC(=O)[C@H](Cc3ccccc3)NC2=O)C(=O)N[C@@H](C(C)C)C(=O)N[C@@H](Cc2ccc(O)cc2)C(=O)N[C@@H](Cc2ccc(O)cc2)C(=O)N1)C(=O)N[C@H](C(=O)N[C@@H](Cc1c[nH]c2ccccc12)C(=O)O)[C@@H](C)CC [ET-3, endothelin-3, reference compound]",–,–,caused a contraction of the trachea in a concentration dependent manner
